Assay results as given in patent publication US20150005288A1, “SUBSTITUTED PHENYLIMIDAZOPYRAZOLES AND USE THEREOF” (Bayer Intellectual Property GmbH, priority 2012, published 2015).

What follows are molecules tested against T1, intracellular domain of human Tie2 (GST fusion protein) (Homo sapiens, UniProt Q02763) (assay: Tie2 kinase assay (Tie2-TR-FRET)). Details: ATP concentration 1 mM, in some cases means of several independent determinations.
T1 construct: intracellular domain of human Tie2 (amino acids 776-1124); made in house; host or cells: Baculovirus-infected insect cells (Hi5)
Assay type: biochemical
Method in brief: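 GST fusion of human Tie2 intracellular domain (aa 776-1124, Hi5-expressed), ~30 ng/ml, pre-incubated 15 min with compound, then 1 mM ATP and 1 μM biotinylated peptide, 60 min at 22 °C, pH 7. TR-FRET (Eu anti-phosphotyrosine/streptavidin-XL665, 665/620 nm ratio). […] 20 μM–0.073 nM in duplicate; IC50 by 4-parameter fit.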

T1 sequence (Q02763 776-1124): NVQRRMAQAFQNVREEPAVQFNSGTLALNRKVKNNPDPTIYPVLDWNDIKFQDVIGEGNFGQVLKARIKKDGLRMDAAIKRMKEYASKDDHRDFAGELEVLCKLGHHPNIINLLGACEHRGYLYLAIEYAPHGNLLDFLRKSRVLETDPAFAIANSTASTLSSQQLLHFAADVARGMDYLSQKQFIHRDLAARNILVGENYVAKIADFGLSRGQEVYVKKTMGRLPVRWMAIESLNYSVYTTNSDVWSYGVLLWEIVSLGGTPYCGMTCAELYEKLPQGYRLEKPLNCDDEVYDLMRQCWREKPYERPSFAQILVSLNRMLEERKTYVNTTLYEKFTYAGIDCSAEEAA

Compound	IC50 [nM]
Cc1cc(C)c(-n2ccn3nc(-c4cccnc4)cc23)cc1NC(=O)c1cc(Cl)cc(S(F)(F)(F)(F)F)c1 [Example 108, 3-Chloro-N-{2,4-dimethyl-5-[6-(pyridin-3-yl)-1H-imidazo[1,2-b]pyrazol-1-yl]phenyl}-5-(pentafluoro-λ^6-sulphanyl)benzamide]	0.7
Cc1cc(C)c(-n2ccn3nc(-c4cccnc4)cc23)cc1NC(=O)c1cc(Br)cc(S(F)(F)(F)(F)F)c1 [Example 109, 3-Bromo-N-{2,4-dimethyl-5-[6-(pyridin-3-yl)-1H-imidazo[1,2-b]pyrazol-1-yl]phenyl}-5-(pentafluoro-λ^6-sulphanyl)benzamide]	0.5
Cc1cc(C)c(-n2ccn3nc(-c4cccnc4)cc23)cc1NC(=O)c1cc(C(=O)O)cc(S(F)(F)(F)(F)F)c1 [Example 110, 3-({2,4-Dimethyl-5-[6-(pyridin-3-yl)-1H-imidazo[1,2-b]pyrazol-1-yl]phenyl}carbamoyl)-5-(pentafluoro-λ^6-sulphanyl)benzoic acid]	5
Cc1cc(C(=O)Nc2cc(-n3ccn4nc(-c5cccnc5)cc34)c(C)cc2C)cc(S(F)(F)(F)(F)F)c1 [Example 111, N-{2,4-Dimethyl-5-[6-(pyridin-3-yl)-1H-imidazo[1,2-b]pyrazol-1-yl]phenyl}-3-methyl-5-(pentafluoro-λ^6-sulphanyl)benzamide]	0.7
Cc1cc(C)c(-n2ccn3nc(-c4cccnc4)cc23)cc1NC(=O)c1cc(Br)cc(C(C)(C)C)c1 [Example 113, 3-Bromo-5-tert-butyl-N-{2,4-dimethyl-5-[6-(pyridin-3-yl)-1H-imidazo[1,2-b]pyrazol-1-yl]-phenyl}benzamide]	0.6
Cc1cc(C)c(-n2ccn3nc(-c4cccnc4)cc23)cc1NC(=O)c1cc(C#N)cc(C(C)(C)C)c1 [Example 114, 3-tert-Butyl-5-cyano-N-{2,4-dimethyl-5-[6-(pyridin-3-yl)-1H-imidazo[1,2-b]pyrazol-1-yl]phenyl}-benzamide]	0.3
Cc1cc(C)c(-n2ccn3nc(-c4cccnc4)cc23)cc1NC(=O)c1cc(Cl)nc(C(C)(C)C)c1 [Example 115, 2-tert-Butyl-6-chloro-N-{2,4-dimethyl-5-[6-(pyridin-3-yl)-1H-imidazo[1,2-b]pyrazol-1-yl]-phenyl}isonicotinamide]	0.8
Cc1cc(F)c(NC(=O)c2cc(C#N)cc(C(C)(C)C)c2)cc1-n1ccn2nc(-c3cccnc3)cc12 [Example 118, 3-tert-Butyl-5-cyano-N-{2-fluoro-4-methyl-5-[6-(pyridin-3-yl)-1H-imidazo[1,2-b]pyrazol-1-yl]-phenyl}benzamide]	0.4
Cc1ccc(NC(=O)c2cccc(S(F)(F)(F)(F)F)c2)c(C)c1-n1ccn2nc(-c3cccnc3)cc12 [Example 119, N-{2,4-Dimethyl-3-[6-(pyridin-3-yl)-1H-imidazo[1,2-b]pyrazol-1-yl]phenyl}-3-(pentafluoro-λ^6-sulphanyl)benzamide]	110
Cc1ccc(NC(=O)c2cc(Br)cc(S(F)(F)(F)(F)F)c2)c(C)c1-n1ccn2nc(-c3cccnc3)cc12 [Example 120, 3-Bromo-N-{2,4-dimethyl-3-[6-(pyridin-3-yl)-1H-imidazo[1,2-b]pyrazol-1-yl]phenyl}-5-(pentafluoro-λ^6-sulphanyl)benzamide]	37
Cc1ccc(NC(=O)c2cc(C#N)cc(S(F)(F)(F)(F)F)c2)c(C)c1-n1ccn2nc(-c3cccnc3)cc12 [Example 121, 3-Cyano-N-{2,4-dimethyl-3-[6-(pyridin-3-yl)-1H-imidazo[1,2-b]pyrazol-1-yl]phenyl}-5-(pentafluoro-λ^6-sulphanyl)benzamide]	18
Cc1ccc(NC(=O)c2cc(C(F)(F)F)cc(S(N)(=O)=O)c2)cc1-n1ccn2nc(-c3cccnc3)cc12 [Example 122, N-{4-Methyl-3-[6-(pyridin-3-yl)-1H-imidazo[1,2-b]pyrazol-1-yl]phenyl}-3-sulphamoyl-5-(trifluoromethyl)benzamide]	3.9
Cc1ccc(NC(=O)c2cccc(C(C)(C)C)c2)cc1-n1ccn2nc(-c3cccnc3)cc12 [Example 123, 3-tert-Butyl-N-{4-methyl-3-[6-(pyridin-3-yl)-1H-imidazo[1,2-b]pyrazol-1-yl]phenyl}benzamide]	56
Cc1cc(C(=O)Nc2ccc(C)c(-n3ccn4nc(-c5cccnc5)cc34)c2)cc(S(N)(=O)=O)c1 [Example 124, 3-Methyl-N-{4-methyl-3-[6-(pyridin-3-yl)-1H-imidazo[1,2-b]pyrazol-1-yl]phenyl}-5-sulphamoyl-benzamide]	297
Cc1ccc(NC(=O)c2cc(C(C)(C)C)ccn2)cc1-n1ccn2nc(-c3cccnc3)cc12 [Example 125, 4-tert-Butyl-N-{4-methyl-3-[6-(pyridin-3-yl)-1H-imidazo[1,2-b]pyrazol-1-yl]phenyl}pyridine-2-carboxamide]	280
Cc1cc(C)c(-n2ccn3nc(-c4cccnc4)cc23)cc1NC(=O)c1cccc(SC(F)(F)F)c1 [Example 126, N-{2,4-Dimethyl-5-[6-(pyridin-3-yl)-1H-imidazo[1,2-b]pyrazol-1-yl]phenyl}-3-[(trifluoromethyl)-sulphanyl]benzamide]	1.2
Cc1cc(C)c(-n2ccn3nc(-c4cccnc4)cc23)cc1NC(=O)c1cccc(OC(F)(F)F)c1 [Example 127, N-{2,4-Dimethyl-5-[6-(pyridin-3-yl)-1H-imidazo[1,2-b]pyrazol-1-yl]phenyl}-3-(trifluoromethoxy)benzamide]	1.4
Cc1cc(C)c(-n2ccn3nc(-c4cccnc4)cc23)cc1NC(=O)c1cccc(OC(F)F)c1 [Example 128, N-{2,4-Dimethyl-5-[6-(pyridin-3-yl)-1H-imidazo[1,2-b]pyrazol-1-yl]phenyl}-3-(difluoromethoxy)-benzamide]	43
Cc1cc(C)c(-n2ccn3nc(-c4cccnc4)cc23)cc1NC(=O)c1cccc(OC(F)(F)C(F)F)c1 [Example 129, N-{2,4-Dimethyl-5-[6-(pyridin-3-yl)-1H-imidazo[1,2-b]pyrazol-1-yl]phenyl}-3-(1,1,2,2-tetra-fluoroethoxy)benzamide]	3.2
Cc1cc(C)c(-n2ccn3nc(-c4cccnc4)cc23)cc1NC(=O)c1cccc(OCC(F)(F)F)c1 [Example 130, N-{2,4-Dimethyl-5-[6-(pyridin-3-yl)-1H-imidazo[1,2-b]pyrazol-1-yl]phenyl}-3-(2,2,2-trifluoroethoxy)benzamide]	24
COc1cccc(C(=O)Nc2cc(-n3ccn4nc(-c5cccnc5)cc34)c(C)cc2C)c1 [Example 131, N-{2,4-Dimethyl-5-[6-(pyridin-3-yl)-1H-imidazo[1,2-b]pyrazol-1-yl]phenyl}-3-methoxybenzamide]	252
Cc1cc(C)c(-n2ccn3nc(-c4cccnc4)cc23)cc1NC(=O)c1cccc(OC(C)C)c1 [Example 132, N-{2,4-Dimethyl-5-[6-(pyridin-3-yl)-1H-imidazo[1,2-b]pyrazol-1-yl]phenyl}-3-isopropoxybenzamide]	4.6
Cc1cc(C)c(-n2ccn3nc(-c4cccnc4)cc23)cc1NC(=O)c1cccc(OCC(C)C)c1 [Example 133, N-{2,4-Dimethyl-5-[6-(pyridin-3-yl)-1H-imidazo[1,2-b]pyrazol-1-yl]phenyl}-3-isobutoxybenzamide]	53
